The target in test [1] is b-Raf (V600E) (Homo sapiens (Human), UniProt P15056, V600E). The test can be described thus: In vitro Raf activity determination (Alpha Screen, phospho-MEK), b-Raf (V600E). In kind it is biochemical. The note with it: ATP 10 μM, 60 min pre-incubation, 3 hours reaction.
The target of test [2] is C-Raf FL (Homo sapiens (Human), UniProt P04049, Y340E/Y341E). As to the kind of experiment: In vitro Raf activity determination (Alpha Screen, phospho-MEK), C-Raf FL (full length, Y340E/Y341E). It counts as biochemical. The note with it: ATP 1 μM; 60 min pre-incubation; 1 hour reaction; column head does not say FL or TR. An outline of the steps: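 Sf9-expressed C-Raf incubated with biotinylated kinase-dead MEK1 (K97R) in 50 mM Tris pH 7.5, 15 mM MgCl2, 0.01% BSA, 1 mM DTT with compound, 60 min at room temperature. Phospho-MEK detected by anti-p-MEK AlphaScreen luminescence; IC50 by non-linear regression.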

What is called IC50 is the concentration needed to halve the response being measured. Read a low IC50 as greater potency in that assay.

C-Raf FL, sequence (P04049 whole entry Y340E/Y341E): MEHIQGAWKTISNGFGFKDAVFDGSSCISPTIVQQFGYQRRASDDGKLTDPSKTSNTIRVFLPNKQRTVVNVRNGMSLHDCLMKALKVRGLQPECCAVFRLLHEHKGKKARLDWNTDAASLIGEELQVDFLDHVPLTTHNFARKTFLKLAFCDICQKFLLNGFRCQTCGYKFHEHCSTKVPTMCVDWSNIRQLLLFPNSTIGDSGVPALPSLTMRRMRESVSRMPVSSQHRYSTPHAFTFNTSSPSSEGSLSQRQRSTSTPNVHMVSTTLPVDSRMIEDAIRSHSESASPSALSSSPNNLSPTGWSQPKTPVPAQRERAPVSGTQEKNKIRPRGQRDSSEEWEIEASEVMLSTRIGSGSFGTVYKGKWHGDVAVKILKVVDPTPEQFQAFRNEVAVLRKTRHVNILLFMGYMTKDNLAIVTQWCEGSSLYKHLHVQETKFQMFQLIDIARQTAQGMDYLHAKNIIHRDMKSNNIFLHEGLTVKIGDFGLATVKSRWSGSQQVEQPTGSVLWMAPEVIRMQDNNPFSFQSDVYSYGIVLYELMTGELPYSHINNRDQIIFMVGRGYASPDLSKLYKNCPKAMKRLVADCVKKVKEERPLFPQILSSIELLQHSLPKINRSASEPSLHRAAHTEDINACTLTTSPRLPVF
C-Raf FL, sequence (P63104 whole entry partner): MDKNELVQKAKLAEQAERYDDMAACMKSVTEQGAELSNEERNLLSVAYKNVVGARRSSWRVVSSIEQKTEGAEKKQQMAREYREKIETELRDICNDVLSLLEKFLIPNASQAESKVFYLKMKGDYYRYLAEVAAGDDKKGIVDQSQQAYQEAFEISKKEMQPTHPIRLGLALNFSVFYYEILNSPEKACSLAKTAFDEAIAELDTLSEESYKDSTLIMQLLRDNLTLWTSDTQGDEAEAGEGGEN
b-Raf (V600E), sequence (P15056 whole entry V600E): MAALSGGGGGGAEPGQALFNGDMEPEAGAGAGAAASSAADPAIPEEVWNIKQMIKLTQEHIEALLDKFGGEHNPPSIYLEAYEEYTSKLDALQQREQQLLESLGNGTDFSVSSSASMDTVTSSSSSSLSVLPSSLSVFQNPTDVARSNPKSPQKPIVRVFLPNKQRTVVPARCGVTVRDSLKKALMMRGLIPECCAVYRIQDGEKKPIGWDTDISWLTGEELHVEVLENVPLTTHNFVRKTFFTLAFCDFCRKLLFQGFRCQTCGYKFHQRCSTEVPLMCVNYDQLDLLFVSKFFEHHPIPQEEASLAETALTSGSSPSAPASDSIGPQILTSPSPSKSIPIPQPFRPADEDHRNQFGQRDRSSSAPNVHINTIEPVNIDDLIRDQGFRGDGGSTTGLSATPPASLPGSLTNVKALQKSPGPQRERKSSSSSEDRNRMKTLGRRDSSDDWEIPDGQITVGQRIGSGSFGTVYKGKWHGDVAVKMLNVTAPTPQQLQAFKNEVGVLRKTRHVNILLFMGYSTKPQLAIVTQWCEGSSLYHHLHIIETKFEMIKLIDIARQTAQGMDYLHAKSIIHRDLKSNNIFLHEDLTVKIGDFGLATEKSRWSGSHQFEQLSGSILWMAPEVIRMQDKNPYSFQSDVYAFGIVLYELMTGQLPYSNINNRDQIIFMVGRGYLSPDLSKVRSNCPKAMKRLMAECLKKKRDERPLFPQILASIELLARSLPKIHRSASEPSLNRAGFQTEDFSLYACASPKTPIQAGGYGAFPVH

`COc1cc(-c2cc(NC(=O)c3ccnc(C(C)(C)C#N)c3)ccc2C)cc(C2COC2)c1` [Example 23, 2-(2-cyanopropan-2-yl)-N-(3′-methoxy-6-methyl-5′-(oxetan-3-yl)-[1,1′-biphenyl]-3-yl)isonicotinamide]: the IC50 in test [1] and in test [2] was 25000 nM throughout.

For `Cc1ncc(NC(=O)c2cccc(C(F)(F)F)c2)cc1-c1cnc(OCCO)c(C2(O)COC2)c1` [Example 36, N-(6′-(2-hydroxyethoxy)-5′-(3-hydroxyoxetan-3-yl)-2-methyl-[3,3′-bipyridin]-5-yl)-3-(trifluoromethyl)benzamide], the IC50 turned out to be 12 nM in test [1] and 1.84 nM in test [2].

Regarding `COc1ncc(-c2cc(NC(=O)c3cc(C(C)(F)F)ccn3)ccc2C)cc1C1(O)COC1` [Example 92, 4-(1,1-difluoroethyl)-N-(3-(5-(3-hydroxyoxetan-3-yl)-6-methoxypyridin-3-yl)-4-methylphenyl)picolinamide], the half-inhibitory concentration (IC50) in test [1] is 2.2 nM; in test [2], 0.333 nM.

With `Cc1ncc(NC(=O)c2cccc(C(F)(F)F)c2)cc1-c1cc(C2(F)COC2)c(=O)n(CC(O)CO)c1` (stereo not drawn) [Example 45, N-(1′-(2,3-dihydroxypropyl)-5′-(3-fluorooxetan-3-yl)-2-methyl-6′-oxo-1′,6′-dihydro-[3,3′-bipyridin]-5-yl)-3-(trifluoromethyl)benzamide], the IC50 came out at 1180 nM in test [1] and 121 nM in test [2].

`COc1ncc(-c2cc(NC(=O)c3ccnc(C4(C#N)CC4)c3)ccc2C)cc1C1(O)COC1` [Example 100]: the IC50 in test [1] was found to be 2.2 nM; in test [2], 0.3 nM.

As for `Cc1ccc(NC(=O)c2cccc(C(F)(F)F)c2)cc1-c1cccc(C2(C)COC2)c1` [Example 25, N-(6-methyl-3′-(3-methyloxetan-3-yl)-[1,1′-biphenyl]-3-yl)-3-(trifluoromethyl)benz-amide], the results for the IC50 in test [1] and in test [2] were 0.87 nM and 0.154 nM, respectively.

`Cc1ncc(NC(=O)c2ccnc(C(C)(F)F)c2)cc1-c1cccc(C2(C)COC2)c1` [Example 68, 2-(1,1-difluoroethyl)-N-(6-methyl-5-(3-(3-methyloxetan-3-yl)phenyl)pyridin-3-yl)isonicotinamide]: the IC50 in test [1] worked out at 3.71 nM; in test [2], 0.618 nM.

In the case of `COc1ncc(-c2cc(NC(=O)c3ccnc(C(C)(F)F)c3)ccc2C)cc1C1(CF)COC1` [Example 103, 2-(1,1-difluoroethyl)-N-(3-(5-(3-(fluoromethyl)oxetan-3-yl)-6-methoxypyridin-3-yl)-4-methylphenyl)isonicotin-amide], the results for the IC50 in test [1] and in test [2] were 0.293 nM and 0.0844 nM, respectively.

Regarding `COc1ncc(-c2cc(NC(=O)c3cc(C(C)(C)N)cc(C(F)(F)F)c3)cnc2C)cc1C1(F)COC1` [Example 102, 3-(2-aminopropan-2-yl)-N-(5′-(3-fluorooxetan-3-yl)-6′-methoxy-2-methyl-[3,3′-bipyridin]-5-yl)-5-(trifluoromethyl)benzamide], the figures for the IC50 in test [1] and in test [2] were 13.2 nM and 2.68 nM, respectively.

Turning to `CCOc1ncc(-c2cc(NC(=O)c3cnnc(C(F)(F)F)c3)cnc2C)cc1C1(C)COC1` [Example 66, N-(6′-ethoxy-2-methyl-5′-(3-methyloxetan-3-yl)-[3,3′-bipyridin]-5-yl)-6-(trifluoromethyl)pyridazine-4-carboxamide], the results for the IC50 in test [1] and in test [2] were 1.45 nM and 0.258 nM, respectively.

For `COc1ncc(-c2cc(NC(=O)c3cccc(C(F)(F)F)c3)cnc2C)cc1C1(O)COC1` [Example 97, N-(5′-(3-hydroxyoxetan-3-yl)-6′-methoxy-2-methyl-[3,3′-bipyridin]-5-yl)-3-(trifluoromethyl)benzamide], the IC50 in test [1] is 10.4 nM; in test [2] it was 1.41 nM.

Regarding `Cc1ccc(C(=O)Nc2cccc(C(F)(F)F)c2)cc1-c1cccc(C2(C)COC2)c1` [Example 26, 6-methyl-3′-(3-methyloxetan-3-yl)-N-(3-(trifluoromethyl)phenyl)-[1,1′-biphenyl]-3-carboxamide], the values for the IC50 in test [1] and in test [2] were 2.3 nM and 0.372 nM, respectively.

On to `COc1ncc(-c2cc(NC(=O)c3cc(C(C)(C)F)ccn3)cnc2C)cc1C1(F)COC1` [Example 93, N-(5′-(3-fluorooxetan-3-yl)-6′-methoxy-2-methyl-[3,3′-bipyridin]-5-yl)-4-(2-fluoropropan-2-yl)picolinamide], for which the figures for the IC50 in test [1] and in test [2] were 8.03 nM and 1.01 nM, respectively.

`Cc1ccc(NC(=O)c2ccnc(C(C)(C)C#N)c2)cc1-c1cc(C2(C)COC2)c2nccn2n1` [Example 29, 2-(2-cyanopropan-2-yl)-N-(4-methyl-3-(8-(3-methyloxetan-3-yl)imidazo[1,2-b]pyridazin-6-yl)phenyl)isonicotinamide]: the IC50 in test [1] worked out at 4.95 nM; in test [2], 0.637 nM.

Turning to `Cc1ncc(NC(=O)c2ccnc(C(C)(F)F)c2)cc1-c1cnc(OCCO)c(C2(F)COC2)c1` [Example 39, 7-(1,1-difluoroethyl)-N-(5′-(3-fluorooxetan-3-yl)-6′-(2-hydroxyethoxy)-2-methyl-[3,3′-bipyridin]-5-yl)isonotinamide], the results for the IC50 in test [1] and in test [2] were 5.9 nM and 1.17 nM, respectively.

As for `CCOc1ncc(-c2cc(NC(=O)c3ccnc(C(C)(C)F)c3)cnc2C)cc1C1(CF)COC1` [Example 131, N-(6′-ethoxy-5′-(3-(fluoromethyl)oxetan-3-yl)-2-methyl-[3,3′-bipyridin]-5-yl)-2-(2-fluoropropan-2-yl)isonicotinamide], the figures for the IC50 in test [1] and in test [2] were 1.3 nM and 0.31 nM, respectively.

With `COc1ncc(-c2cc(NC(=O)c3cc(C(C)(F)F)ccn3)cnc2C)cc1C1(F)COC1` [Example 90, 4-(1,1-difluoroethyl)-N-(5′-(3-fluorooxetan-3-yl)-6′-methoxy-2-methyl-[3,3′-bipyridin]-5-yl)picolinamide], the half-maximal inhibitory concentration (IC50) in test [1] was determined as 3.61 nM; in test [2], 0.386 nM.

With `COc1ncc(-c2cc(NC(=O)c3ccnc(C(C)(C)F)c3)cnc2C)cc1C1(O)COC1` [Example 76, 2-(2-fluoropropan-2-yl)-N-(5′-(3-hydroxyoxetan-3-yl)-6′-methoxy-2-methyl-[3,3′-bipyridin]-5-yl)isonicotinamide], the IC50 in test [1] worked out at 22.8 nM; in test [2], 3.93 nM.

For `COc1ncc(-c2cc(NC(=O)c3ccnc(C(C)(C)F)c3)cnc2C)cc1C1(F)COC1` [Example 82, N-(5′-(3-fluorooxetan-3-yl)-6′-methoxy-2-methyl-[3,3′-bipyridin]-5-yl)-2-(2-fluoropropan-2-yl)isonicotinamide], the figures for the IC50 in test [1] and in test [2] were 3.73 nM and 1.13 nM, respectively.

Take `COc1ncc(-c2cc(NC(=O)c3cc(C(F)(F)F)ccn3)ccc2C)cc1C1(F)COC1` [Example 88, N-(3-(5-(3-fluorooxetan-3-yl)-6-methoxypyridin-3-yl)-4-methylphenyl)-4-(trifluoromethyl)picolin-amide]: the IC50 came out at 0.934 nM in test [1] and 0.303 nM in test [2].

On to `COc1ncc(-c2cc(NC(=O)c3ccnc(C(C)(C)C#N)c3)ccc2C)cc1C1(CF)COC1` [Example 106, 2-(2-cyanopropan-2-yl)-N-(3-(5-(3-(fluoromethyl)oxetan-3-yl)-6-methoxypyridin-3-yl)-4-methylphenyl)isonicotin-amide], for which the figures for the IC50 in test [1] and in test [2] were 0.58 nM and 0.146 nM, respectively.

For the origin of these results see patent US10167279B2 (NOVARTIS AG, priority 2014, dated 2019).
